Consider `*C(C(=O)OC(C)C)C(*)C(=O)OC(C)CC` (repeat unit), for which the H2 permeability is 51 Barrer, the N2 permeability was determined as 5 Barrer and the O2 permeability turned out to be 12 Barrer.
For `*C(C(=O)OC(C)C)C(*)C(=O)OC(C)CC(C)C` (repeat unit) the same measures were 156 Barrer, 14 Barrer and 45 Barrer.
The matching figures for `*C(C(=O)OC(C)CC(C)C)C(*)C(=O)OC(C)(C)C` (repeat unit): 169 Barrer, 16 Barrer and 49 Barrer.
For `*C(C(=O)OC(C)CC)C(*)C(=O)OC(C)(C)C` (repeat unit) the same measures were 145 Barrer, 13 Barrer and 39 Barrer.
`*[Si](C)(C)CCCCCC[Si](*)(C)C` (repeat unit) yielded an N2 permeability of 81 Barrer and an O2 permeability of 182 Barrer.
As for `*c1c(C)cc(C)c(N2C(=O)c3ccc(S(=O)(=O)c4ccc5c(c4)C(=O)N(*)C5=O)cc3C2=O)c1C` (repeat unit), the H2 permeability stood at 47.1 Barrer, the N2 permeability turned out to be 1.02 Barrer and the O2 permeability turned out to be 5.69 Barrer.
`*c1ccc(-c2ccc(N3C(=O)c4ccc([Si](C)(C)c5ccc6c(c5)C(=O)N(*)C6=O)cc4C3=O)c(C)c2)cc1C` (repeat unit) gave an H2 permeability of 10.9 Barrer, an N2 permeability of 0.094 Barrer and an O2 permeability of 0.663 Barrer.
For `*c1ccc(-c2ccc(N3C(=O)c4ccc([Si](C)(C)c5ccc6c(c5)C(=O)N(*)C6=O)cc4C3=O)c(OC)c2)cc1OC` (repeat unit) the same measures were 9.33 Barrer, 0.096 Barrer and 0.53 Barrer.
`*c1ccc(-c2nc3cc(-c4ccc5[nH]c(*)nc5c4)ccc3[nH]2)c(Br)c1` (repeat unit) returned an H2 permeability of 0.38 Barrer and an O2 permeability of 0.006 Barrer.
Turning to `*c1ccc(Cc2ccc(N3C(=O)c4ccc(Oc5ccc6c(c5)C(=O)N(*)C6=O)cc4C3=O)cc2)cc1` (repeat unit), the H2 permeability is 5.62 Barrer, the N2 permeability is 0.028 Barrer and the O2 permeability was determined as 0.261 Barrer.
The matching figures for `*c1ccc(Cc2ccc(N3C(=O)c4ccc(S(=O)(=O)c5ccc6c(c5)C(=O)N(*)C6=O)cc4C3=O)cc2)cc1` (repeat unit): 6.32 Barrer, 0.032 Barrer and 0.296 Barrer.
The matching figures for `*c1ccc(Cc2ccc(N3C(=O)c4ccc(Sc5ccc6c(c5)C(=O)N(*)C6=O)cc4C3=O)cc2)cc1` (repeat unit): 5.43 Barrer, 0.027 Barrer and 0.246 Barrer.
The matching figures for `*c1ccc(N2C(=O)c3ccc(C(=O)Oc4ccc(C(c5ccc(OC(=O)c6ccc7c(c6)C(=O)N(*)C7=O)cc5)(C(F)(F)F)C(F)(F)F)cc4)cc3C2=O)cc1` (repeat unit): 4.36 Barrer, 0.0355 Barrer and 0.251 Barrer.
Compound `*c1ccc(Oc2ccc(N3C(=O)c4ccc(Oc5ccc(Oc6ccc7c(c6)C(=O)N(*)C7=O)cc5)cc4C3=O)cc2)cc1` (repeat unit) returned an H2 permeability of 4 Barrer, an N2 permeability of 0.034 Barrer and an O2 permeability of 0.216 Barrer.
As to `*c1ccc(Oc2ccc(N3C(=O)c4ccc(Sc5ccc6c(c5)C(=O)N(*)C6=O)cc4C3=O)cc2)cc1` (repeat unit), the H2 permeability was 4.68 Barrer, the N2 permeability was found to be 0.021 Barrer and the O2 permeability stood at 0.198 Barrer.
As for `*c1ccc2c(c1)C(=O)n1c-2nc2ccc(-c3ccc4c(c3)nc3n4C(=O)c4ccc(C(*)(C(F)(F)F)C(F)(F)F)cc4-3)cc21` (repeat unit), the H2 permeability is 74.4 Barrer, the N2 permeability was found to be 1.44 Barrer and the O2 permeability came to 7.75 Barrer.
For `*c1ccc2c(c1)C(=O)n1c-2nc2ccc(Oc3ccc4c(c3)nc3n4C(=O)c4ccc(C(*)(C(F)(F)F)C(F)(F)F)cc4-3)cc21` (repeat unit) the same measures were 54.9 Barrer, 0.81 Barrer and 5.04 Barrer.
`*c1cccc(-c2nc3cc(-c4ccc5[nH]c(*)nc5c4)ccc3[nH]2)n1` (repeat unit) showed an H2 permeability of 1.38 Barrer and an O2 permeability of 0.045 Barrer.

Source of the values: a polymer gas permeability compilation.
